Laboratory results: ChEMBL document CHEMBL5233246, “CT1-3, a novel magnolol-sulforaphane hybrid suppresses tumorigenesis through inducing mitochondria-mediated apoptosis and inhibiting epithelial mesenchymal transition” (Eur J Med Chem, 2020)
Active and inactive are the calls of the source. The rule behind the calls is not given here.

How the values were obtained:
NCI-H1650 = assay: Antiproliferative activity against human NCI-H1650 cells assessed as reduction in cell viability incubated for 24 hrs by CCK-8 assay; assay type: functional, cell-based; settings: NCI-H1650, 24 h
A549 = assay: Antiproliferative activity against human A549 cells assessed as reduction in cell viability incubated for 24 hrs by CCK-8 assay; assay type: functional, cell-based; settings: A549, 24 h
[1] = Antiproliferative activity against human […] cells assessed as reduction in cell viability incubated for 24 hrs by CCK-8 assay; assay type: functional, cell-based
L02 = assay: Cytotoxicity against human L02 cells assessed as reduction in cell viability incubated for 8 hrs by CCK-8 assay; assay type: toxicity, cell-based; settings: l02, 8 h
AGS = assay: Antiproliferative activity against human AGS cells assessed as reduction in cell viability incubated for 24 hrs by CCK-8 assay; assay type: functional, cell-based
MCF7 = assay: Antiproliferative activity against human MCF7 cells assessed as reduction in cell viability incubated for 24 hrs by CCK-8 assay; assay type: functional, cell-based; settings: MCF7, 24 h
NCI-H460 [2] = assay: Cytotoxicity against human NCI-H460 cells assessed as reduction in cell viability at 10 uM incubated for 8 hr by CCK-8 assay; assay type: functional, cell-based
NCI-H460 [3] = assay: Antiproliferative activity against human NCI-H460 cells assessed as reduction in cell viability incubated for 24 hrs by CCK-8 assay; assay type: functional, cell-based; settings: NCI-H460, 24 h
SW480 = assay: Antiproliferative activity against human SW480 cells assessed as reduction in cell viability incubated for 24 hrs by CCK-8 assay; assay type: functional, cell-based; settings: SW480, 24 h
U-251 = assay: Antiproliferative activity against human U-251 cells assessed as reduction in cell viability incubated for 24 hrs by CCK-8 assay; assay type: functional, cell-based; settings: U-251, 24 h
HONE1 cell line = assay: Antiproliferative activity against human HONE1 cell line assessed as reduction in cell viability incubated for 24 hrs by CCK-8 assay; assay type: functional, cell-based; settings: HONE1, 24 h
[4] = Antiproliferative activity against human NCI-H1688 cells assessed as reduction in cell viability incubated for 24 hrs by CCK-8 assay; assay type: functional, cell-based; settings: NCI-H1688, 24 h
HepG2 = assay: Antiproliferative activity against human HepG2 cells assessed as reduction in cell viability incubated for 24 hrs by CCK-8 assay; assay type: functional, cell-based; settings: HepG2, 24 h
SGC-7901 = assay: Antiproliferative activity against human SGC-7901 cells assessed as reduction in cell viability incubated for 24 hrs by CCK-8 assay; assay type: functional, cell-based; settings: SGC-7901, 24 h
NCI-H1299 = assay: Antiproliferative activity against human NCI-H1299 cells assessed as reduction in cell viability incubated for 24 hrs by CCK-8 assay; assay type: functional, cell-based; settings: NCI-H1299, 24 h
OVCAR-3 = assay: Antiproliferative activity against human OVCAR-3 cells assessed as reduction in cell viability incubated for 24 hrs by CCK-8 assay; assay type: functional, cell-based; settings: OVCAR-3, 24 h
MDA-MB-231 = assay: Antiproliferative activity against human MDA-MB-231 cells assessed as reduction in cell viability incubated for 24 hrs by CCK-8 assay; assay type: functional, cell-based; settings: MDA-MB-231, 24 h
LoVo = assay: Antiproliferative activity against human LoVo cells assessed as reduction in cell viability incubated for 24 hrs by CCK-8 assay; assay type: functional, cell-based

C[S+]([O-])CCCCN=C=S (stereo not drawn) [SULFORAPHANE]
IC50 (NCI-H1650): 22 µM | IC50 (A549): 20.2 µM | IC50 [1]: 25.1 µM | Activity (L02): Non-Toxic | IC50 (AGS): 18.4 µM | IC50 (MCF7): 23.1 µM | Activity (NCI-H460 [2]): inactive | IC50 (NCI-H460 [3]): 21.2 µM | IC50 (SW480): 17.8 µM | IC50 (U-251): 22.5 µM | IC50 (HONE1 cell line): 19.3 µM | IC50 [4]: 16.8 µM | IC50 (HepG2): 21 µM | IC50 (SGC-7901): 24.9 µM | IC50 (NCI-H1299): 11.6 µM | IC50 (OVCAR-3): 18.4 µM | IC50 (MDA-MB-231): 22.2 µM | IC50 (LoVo): 18.5 µM
